Data on one compound can be found in patent publication US8207136B2, “Nucleoside compounds and methods of use thereof” (The Board of Trustees of the University of Illinois, priority 2005, dated 2012).

The subject of one assay is p21 promoter. Nature of the assay: p21 promoter-lacZ reporter screen in LIM1215 colon carcinoma cells. The format is cell-based, human. The following applies: 10 μM, 24 hours. Here is the method:
LIM1215 colon carcinoma cells harboring the lacZ reporter gene under the control of a 2.3 kb p21 promoter (containing two p53 binding sites) were grown in 96-well plates. Diversity set, a chemical compound library containing approximately 2000 compounds (dissolved in DMSO), was obtained from the National Cancer Institute (NCI) and was used at a final concentration of 10 μM on the cells for 24 hours. lacZ encoded β-Gal was detected by X-Gal staining as described previously.
In order to find small molecule transcriptional inhibitors of p21, we generated LIM1215 colon cancer cells, carrying lacZ under the control of p21 promoter, as a screening system for testing ˜2000 structurally diverse compounds (Diversity Set) obtained from National Cancer Institute (NCI). […] To determine if these effects mediated by ARC were dose-dependent, we treated HCT-116 colon carcinoma cells with different concentrations of ARC.

Assay [1] deals with phospho-RNA polymerase II. The experiment in a line: Immunoblot of phospho-RNA polymerase II in HCT-116 cells. To be noted: 3 hours. The class given is cell-based, human. Here is the method:
(§1) Immunoblotting was performed as described with antibodies specific for p53 (sc-126 HRP; Santa Cruz), hdm2 (sc-965; Santa Cruz), p21 (556431; BD Pharmingen), Sp1 (sc-59; Santa Cruz), survivin (sc-10811; Santa Cruz), phospho RNA polymerase II (4735; Cell Signaling), total RNA polymerase II (8WG16; a gift from Dr. Schlegel, University of Illinois at Chicago), α-tubulin (T9026; Sigma), cleaved caspase-3 (9664; Cell Signaling), caspase-9 (9502; Cell Signaling) and β-actin (A5441; Sigma) antibodies.
It is known that DRB and flavopiridol inhibit transcription by blocking the kinase activity of P-TEFb, which in turn leads to decreased phosphorylation of RNA polymerase II C-terminal domain (CTD). To determine if ARC operates by a similar mechanism, a kinase assay was performed with purified P-TEFb using GST-CTD (GST tagged C-terminal domain of RNA polymerase II) as the substrate. […] To evaluate this effect in vivo, HCT-116 cells were treated with ARC for 3 hours and analyzed levels of phospho-RNA polymerase II by immunoblotting. While the total amount of RNA polymerase II remained unchanged, phosphorylation of the RNA polymerase II CTD decreased upon ARC treatment (FIG. 2D), consistent with the in vitro kinase assay.
On the technique in general: In western blotting, separated proteins are transferred to a membrane and probed.

Assay [2] has as its system p53. The experiment in a line: Gel shift assay with nuclear extracts and p53 consensus probe. The format is cell-based, human. Here is the method:
(§2) Either purified p53 protein or nuclear extracts were used in the gel shift assays. For preparation of nuclear extracts, cells treated either with DMSO or different agents (doxorubicin, ARC and actinomycin D) were harvested 24 hours later and lysed in hypotonic buffer (10 mM HEPES pH 7.9, 1.5 mM MgCl2, 10 mM KCl, 0.2 mM PMSF, 0.5 mM DTT, 1 mM Na3VO4, 1 mM NaF, 1 mM Aprotinin and 1 mM Leupeptin), nuclei pelleted and treated with high-salt buffer (20 mM HEPES pH 7.9, 20% (v/v) glycerol, 1.5 mM MgCl2, 0.5 M KCl, 0.2 mM EDTA, 0.2 mM PMSF, 0.5 mM DTT, 1 mM Na3VO4, 1 mM NaF, 1 mM Aprotinin and 1 mM Leupeptin). Nuclear extracts (10 μg) or purified p53 protein (100 ng) were incubated with 0.5 ng of p53 consensus double-stranded oligos (5′-TACAGAACATGTCTAAGCATGCTGGGGACT-3′; Santa Cruz Biotechnology) that were labeled with [γ^32P]ATP. As a control, anti-p53 antibody (PAb421, EMD Biosciences) was used to supershift the p53/DNA complex. The reaction mixtures were resolved on a 4% acrylamide DNA-retardation gel, dried and exposed to X-ray film in the presence of intensifying screen.
Although the effects of ARC were p53-independent, ARC did affect some properties of p53. […] This is in contrast to actinomycin D, which is known to enhance the DNA binding ability of p53 [22]. […] To determine if ARC retains p53 in the cytoplasm, which may lead to decreased binding in the gel shift assays, p53 levels in nuclear lysates were examined.
For orientation: In EMSA bound probe runs differently from free probe, usually more slowly.

Assay [3] relates to p53. The experiment in a line: Gel shift assay with purified p53 phosphorylated by P-TEFb. The format is binding. The following applies: purified p53, different concentrations. Here is the method: as §2
In order to evaluate this activity, an in vitro kinase assay was performed with purified p53 protein and P-TEFb in the presence of different concentrations of ARC.

In assay [4] the test system is SV40-transformed MRC-5 human fetal lung fibroblasts. The experiment in a line: Apoptosis assays in SV40-transformed MRC-5 fibroblasts. The format is cell-based. To be noted: 24 hours. How it is done: as §1
Apoptosis was detected either by DAPI (4′,6-diamidino-2-phenylindole) staining or by Flow Cytometry after PI (Propidium Iodide) staining. For DAPI staining, all treatments (DMSO or ARC) were done in triplicates in 6-well plates and cells were stained with DAPI and visualized by fluorescent microscopy. Four random fields for each sample were photographed and at least 500 cells per field were counted to estimate apoptosis. The data is represented as mean±Standard deviation (sd).
The ability of ARC to induce apoptosis in wild type and SV40-transformed MRC-5 human fetal lung fibroblasts was evaluated. Twenty-four hours after treatment with ARC, transformed fibroblasts underwent robust apoptosis (around 50% and 70%, respectively, with 5 and 10 μM of ARC) (FIGS. 4A and B). […] The transformed cell types may be more dependent on the survivin levels for their survival than their wild type counterparts and thus the reduction in these levels could be lethal to these cells.

The subject of assay [5] is HUVECs. Nature of the assay: Cord formation assay. The class given is cell-based. The following applies: Homo sapiens, HUVEC, 24 hours, averages from three trials. How it is done:
(§3) Different angiogenesis assays such as cord formation assay, motility assay and proliferation inhibition assay were performed at the developmental therapeutics program (DTP) branch of NCI (NCI/DTP) as described. HUVECs were used for all the assays. Taxol and TNP-470 were used as positive control for the assays.
For cord formation assay, HUVECs were plated on a three dimensional layer of Matrigel, where the cells formed cord-like structures. Later, the cells were treated with vehicle (DMSO) or different concentrations of ARC for 24 hours, after which cord formation was quantitated as a function of cord junctions and cord length.

The test system of assay [6] is HUVECs. The experiment in a line: Proliferation inhibition assay. The format is cell-based. The following applies: Homo sapiens, HUVEC; 10 ng/ml VEGF, 24, 48 or 72 hours, average from two trials; read-out: IC50, HUVEC growth. Here is the method:
as §3
For proliferation inhibition assay, HUVECs were grown in the absence of growth factors for 24 hours and then stimulated with 10 ng/ml VEGF and were treated with either DMSO or different concentrations of ARC for 24 hours, 48 hours or 72 hours.

For orientation: IC50 means the point on the concentration scale where inhibition reaches its midpoint.

Turning to `NNc1c(C(N)=O)c2c(N)ncnc2n1[C@@H]1O[C@H](CO)[C@@H](O)[C@H]1O` [ARC, 4-amino-6-hydrazino-7-beta-D-ribofuranosyl-7H-pyrrolo[2,3-d]-pyrimidine-5-carboxamide], the “p21 promoter driven β-Gal expression” value in the assay with p21 promoter is recorded as “inhibit p21 promoter”. For the same compound, the “phosphorylation of the RNA polymerase II CTD in cells” value in assay [1] is recorded as “decreased”. In addition, the “DNA binding ability of p53, agent alone” value in the assay with p53 [2] (MCF-7 nuclear extracts) is given as “did not influence the DNA binding ability of p53”. Further, the “doxorubicin-induced DNA binding ability of p53” value with p53 [2] (nuclear extracts from HCT-116 and MCF-7 cells, with doxorubicin) is recorded as “inhibited the doxorubicin-induced DNA binding ability of p53”. The “DNA binding of p53 phosphorylated by P-TEFb” value with p53 [3] is on record as “inhibited this process in a dose-dependent manner”. Moreover, the “apoptosis (DAPI staining)” value was “around 50%” in assay [4] (5 μM) and approximately 70% in assay [4] (10 μM). Besides, in assay [4], the “cleaved caspase-3” value is reported as “appearance of cleaved caspase-3 was observed”. Besides, in assay [4] (wild type and SV40-transformed MRC-5 fibroblasts), the survivin levels result is on record as “further reduced”. Further, the IC50 is approximately 345 nM with HUVECs [5] (read-out: IC50, cord junctions); approximately 382 nM in the assay on HUVECs [5] (read-out: IC50, cord length); approximately 47 nM with HUVECs [6].
